# According to patent US11787785B2 (NOVARTIS AG, priority 2021, dated 2023):
# Biological target: T1, WIZ protein (HiBit-WIZ fusion protein) (Homo sapiens, UniProt O95785+Q96SW2)
# T1 construct: expressed in transfected cells
# Test: Quantification of WIZ protein levels in HiBit tag fusion protein assay (WIZ HiBit assay in 293T cells)
# Type: cell-based
# Set-up: remaining activity / Dmax: dose or concentration left out as unconfirmed
# Conditions: for Dmax at 25 µM: 100 − Amax; for Dmax at 25 µM / remaining activity at 25 µM: 293T cells; for remaining activity at 25 µM: DMSO-normalized, curve-fitted percentage of WIZ-HiBit remaining at 25 uM; for DC50: WIZ HiBit assay in 293T cells, 10-point, 5-fold dose response, highest concentration 25 μM, about 18 hours, read-out: WIZ AC50
# How it was run: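 Luminescence after LgBit complementation quantified remaining HiBit-WIZ in lysates of single-copy stable 293T lines. Cells dosed ~18 h at 37 °C with 10-point, 5-fold dilutions (highest 25 μM); DMSO set to 100%, fitted curve gave % remaining at 25 μM (Amax).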
# [1] = HEK-293T, read-out: % degradation of WIZ (100 − Amax)
# T1 sequence (O95785 whole entry, the tested form may be a part): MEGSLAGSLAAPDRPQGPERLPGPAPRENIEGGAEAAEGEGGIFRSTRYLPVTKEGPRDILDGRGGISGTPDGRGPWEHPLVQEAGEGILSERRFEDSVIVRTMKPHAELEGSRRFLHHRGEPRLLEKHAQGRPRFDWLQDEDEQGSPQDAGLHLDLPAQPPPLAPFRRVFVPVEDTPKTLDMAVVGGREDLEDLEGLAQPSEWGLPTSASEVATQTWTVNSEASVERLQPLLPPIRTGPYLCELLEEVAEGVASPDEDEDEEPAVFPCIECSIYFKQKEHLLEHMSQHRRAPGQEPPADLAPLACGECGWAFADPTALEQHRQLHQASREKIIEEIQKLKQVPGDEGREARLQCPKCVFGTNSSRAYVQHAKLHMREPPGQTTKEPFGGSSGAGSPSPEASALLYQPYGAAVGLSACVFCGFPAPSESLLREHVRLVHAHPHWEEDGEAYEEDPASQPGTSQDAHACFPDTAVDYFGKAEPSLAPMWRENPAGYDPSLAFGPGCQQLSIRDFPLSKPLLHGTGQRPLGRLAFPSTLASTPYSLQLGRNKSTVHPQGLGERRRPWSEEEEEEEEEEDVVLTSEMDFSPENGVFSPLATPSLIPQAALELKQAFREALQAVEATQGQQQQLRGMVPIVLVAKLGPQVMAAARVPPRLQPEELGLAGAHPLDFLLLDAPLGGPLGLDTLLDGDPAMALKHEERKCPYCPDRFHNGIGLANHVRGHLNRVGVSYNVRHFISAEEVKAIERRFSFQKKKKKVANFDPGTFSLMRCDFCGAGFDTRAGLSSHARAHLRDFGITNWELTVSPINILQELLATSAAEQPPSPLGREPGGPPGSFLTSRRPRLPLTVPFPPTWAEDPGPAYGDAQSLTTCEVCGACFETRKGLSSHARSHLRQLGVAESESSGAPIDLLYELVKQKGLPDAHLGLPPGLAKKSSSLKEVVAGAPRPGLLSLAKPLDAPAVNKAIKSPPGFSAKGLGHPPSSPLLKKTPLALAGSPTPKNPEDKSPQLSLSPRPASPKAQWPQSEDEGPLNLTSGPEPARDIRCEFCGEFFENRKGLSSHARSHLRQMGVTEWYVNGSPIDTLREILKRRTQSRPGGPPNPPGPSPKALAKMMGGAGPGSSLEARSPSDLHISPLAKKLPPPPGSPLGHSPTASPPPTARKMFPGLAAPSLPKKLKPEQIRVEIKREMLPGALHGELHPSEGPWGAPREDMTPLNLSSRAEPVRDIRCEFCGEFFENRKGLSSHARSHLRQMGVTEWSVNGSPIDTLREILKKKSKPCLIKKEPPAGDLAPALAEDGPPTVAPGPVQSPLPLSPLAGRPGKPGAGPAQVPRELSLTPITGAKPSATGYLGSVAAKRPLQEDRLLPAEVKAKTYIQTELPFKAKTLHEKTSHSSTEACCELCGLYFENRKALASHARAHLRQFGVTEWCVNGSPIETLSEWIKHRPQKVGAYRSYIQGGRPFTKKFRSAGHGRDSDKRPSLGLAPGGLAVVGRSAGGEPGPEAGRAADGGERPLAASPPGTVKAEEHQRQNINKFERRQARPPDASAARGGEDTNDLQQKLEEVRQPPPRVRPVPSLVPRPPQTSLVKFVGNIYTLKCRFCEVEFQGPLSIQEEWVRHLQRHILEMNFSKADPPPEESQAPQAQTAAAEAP
# T1 sequence (Q96SW2 whole entry, the tested form may be a part): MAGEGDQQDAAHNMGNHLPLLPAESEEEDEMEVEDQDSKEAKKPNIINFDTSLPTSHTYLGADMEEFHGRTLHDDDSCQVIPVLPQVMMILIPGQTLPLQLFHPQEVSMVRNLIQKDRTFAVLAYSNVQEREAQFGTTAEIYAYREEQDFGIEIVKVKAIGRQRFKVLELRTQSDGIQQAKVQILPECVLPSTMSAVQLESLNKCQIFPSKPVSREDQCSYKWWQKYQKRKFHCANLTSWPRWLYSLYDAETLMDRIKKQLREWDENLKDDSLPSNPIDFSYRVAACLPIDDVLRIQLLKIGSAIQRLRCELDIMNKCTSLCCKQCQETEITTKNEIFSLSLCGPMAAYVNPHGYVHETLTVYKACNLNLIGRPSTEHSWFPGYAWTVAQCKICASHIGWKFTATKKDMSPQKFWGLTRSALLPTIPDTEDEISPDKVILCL
# T1 sequence (Q16531 whole entry partner, the tested form may be a part): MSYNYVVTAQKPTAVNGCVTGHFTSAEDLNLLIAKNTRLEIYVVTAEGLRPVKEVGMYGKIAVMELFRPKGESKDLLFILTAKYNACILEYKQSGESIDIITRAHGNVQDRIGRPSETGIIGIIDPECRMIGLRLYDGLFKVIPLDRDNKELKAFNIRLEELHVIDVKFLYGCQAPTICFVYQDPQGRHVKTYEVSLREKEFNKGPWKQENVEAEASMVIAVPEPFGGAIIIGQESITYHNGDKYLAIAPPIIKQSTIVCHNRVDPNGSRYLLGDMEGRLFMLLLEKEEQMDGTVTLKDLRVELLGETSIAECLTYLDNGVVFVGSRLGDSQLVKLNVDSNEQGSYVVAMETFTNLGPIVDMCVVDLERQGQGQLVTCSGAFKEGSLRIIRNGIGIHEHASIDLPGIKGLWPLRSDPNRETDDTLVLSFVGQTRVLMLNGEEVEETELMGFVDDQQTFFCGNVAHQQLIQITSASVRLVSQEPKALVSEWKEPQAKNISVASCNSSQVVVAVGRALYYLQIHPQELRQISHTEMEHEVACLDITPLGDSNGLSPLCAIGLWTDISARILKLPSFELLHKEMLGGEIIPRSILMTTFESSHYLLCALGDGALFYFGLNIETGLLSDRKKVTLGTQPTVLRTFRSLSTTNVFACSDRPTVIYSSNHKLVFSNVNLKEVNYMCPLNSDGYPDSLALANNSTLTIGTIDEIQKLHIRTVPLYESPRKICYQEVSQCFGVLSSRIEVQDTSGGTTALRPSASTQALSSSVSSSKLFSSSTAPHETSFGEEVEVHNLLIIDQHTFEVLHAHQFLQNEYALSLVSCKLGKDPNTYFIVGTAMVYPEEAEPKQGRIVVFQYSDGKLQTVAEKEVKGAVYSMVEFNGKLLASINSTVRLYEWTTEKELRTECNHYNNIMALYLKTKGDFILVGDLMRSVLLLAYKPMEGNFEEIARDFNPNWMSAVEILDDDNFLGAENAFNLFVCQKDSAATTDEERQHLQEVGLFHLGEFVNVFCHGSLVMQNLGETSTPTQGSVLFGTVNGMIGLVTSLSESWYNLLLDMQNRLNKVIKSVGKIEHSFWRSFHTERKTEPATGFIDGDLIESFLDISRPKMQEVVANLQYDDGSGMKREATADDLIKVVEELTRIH
Compound,Dmax at 25 µM [1],"remaining activity at 25 µM (HEK-293T, read-out: WIZ Amax)",DC50,Dmax [1],"remaining activity (HEK-293T, read-out: WIZ Amax)"
"C[C@H]1C[C@H](Cc2ccn3ncc(-n4ccc(=O)[nH]c4=O)c3c2)CCN1C(=O)C1CC1 [Example 355, 1-(5-(((2S,4R)-1-(cyclopropanecarbonyl)-2-methylpiperidin-4-yl)methyl)pyrazolo[1,5-a]pyridin-3-yl)pyrimidine-2,4(1H,3H)-dione]",82%,18%,183 nM,,
"CC(C)(CN1CCC(Cc2ccn3ncc(N4CCC(=O)NC4=O)c3c2)CC1)C(F)(F)F [Example 62, 1-(5-((1-(3,3,3-trifluoro-2,2-dimethylpropyl)piperidin-4-yl)methyl)pyrazolo[1,5-a]pyridin-3-yl)dihydropyrimidine-2,4(1H,3H)-dione]",73%,27%,49 nM,,
"O=C1CCN(c2cnn3ccc(CC4C[C@H]5CC[C@@H](C4)N5CC4CCCCC4)cc23)C(=O)N1 (stereo partly drawn) [Example 66, 1-(5-(((1R,5S)-8-(cyclohexylmethyl)-8-azabicyclo[3.2.1]octan-3-yl)methyl)pyrazolo[1,5-a]pyridin-3-yl)dihydropyrimidine-2,4(1H,3H)-dione]",72%,28%,195 nM,,
"O=C1CCN(c2cnn3ccc(CC4CCN(Cc5cccc(F)c5F)CC4)cc23)C(=O)N1 [Example 53, 1-(5-((1-(2,3-difluorobenzyl)piperidin-4-yl)methyl)pyrazolo[1,5-a]pyridin-3-yl)dihydropyrimidine-2,4(1H,3H)-dione]",65%,35%,37 nM,,
"O=C1CCN(c2cnn3ccc(CC4CCN(CC(=O)N5CCCCC5)CC4)cc23)C(=O)N1 [Example 52, 1-(5-((1-(2-oxo-2-(piperidin-1-yl)ethyl)piperidin-4-yl)methyl)pyrazolo[1,5-a]pyridin-3-yl)dihydropyrimidine-2,4(1H,3H)-dione]",59%,41%,987 nM,,
O=C1CCN(c2cnn3ccc(CN4CCN(CC(F)(F)F)CC4)cc23)C(=O)N1 [Example 171],52%,48%,981 nM,,
"C[C@@H]1CC(CN2CCN(Cc3ccn4ncc(N5CCC(=O)NC5=O)c4c3)C[C@@H]2C)C[C@H](C)O1 (stereo partly drawn) [Example 199, 1-(5-(((3S)-4-(((2R,6S)-2,6-dimethyltetrahydro-2H-pyran-4-yl)methyl)-3-methylpiperazin-1-yl)methyl)pyrazolo[1,5-a]pyridin-3-yl)dihydropyrimidine-2,4(1H,3H)-dione]",86%,14%,9 nM,,
C[C@H]1C[C@H](Cc2ccn3ncc(N4CCC(=O)NC4=O)c3c2)CCN1S(C)(=O)=O [Example 284],80%,20%,18 nM,,
O=C1CCN(c2cnn3ccc(CC4CCN(S(=O)(=O)C5CCCC5)CC4)cc23)C(=O)N1 [Example 82],90%,10%,33 nM,,
"CC(CN1CCC(Cc2ccn3ncc(N4CCC(=O)NC4=O)c3c2)CC1)C1CCCCC1 (stereo not drawn) [Example 10, 1-(5-((1-(2-cyclohexylpropyl)piperidin-4-yl)methyl)pyrazolo[1,5-a]pyridin-3-yl)dihydropyrimidine-2,4(1H,3H)-dione]",84%,16%,4 nM,,
C[C@H]1C[C@H](Cc2ccn3ncc(N4CCC(=O)NC4=O)c3c2)CCN1S(=O)(=O)NC1CCCC1 [Example 293],76%,24%,65 nM,,
C[C@@H]1CN(Cc2ccn3ncc(N4CCC(=O)NC4=O)c3c2)CCN1CC1CCOCC1 [Example 217],75%,25%,92 nM,,
"C[C@H]1CN(Cc2ccn3ncc(N4CCC(=O)NC4=O)c3c2)CCN1C1CCC1 [Example 329, (S)-1-(5-((4-cyclobutyl-3-methylpiperazin-1-yl)methyl)pyrazolo[1,5-a]pyridin-3-yl)dihydropyrimidine-2,4(1H,3H)-dione]",,,166 nM,83%,17%
"O=C1CCN(c2cnn3ccc(CC4CCN(C5CCC5)CC4)cc23)C(=O)N1 [Example 282, 1-(5-((1-cyclobutylpiperidin-4-yl)methyl)pyrazolo[1,5-a]pyridin-3-yl)dihydropyrimidine-2,4(1H,3H)-dione]",81%,19%,1 nM,,
"C[C@H]1CN(Cc2ccn3ncc(N4CCC(=O)NC4=O)c3c2)CCN1C[C@H]1CC[C@H](C(F)(F)F)CC1 [Example 323, 1-(5-(((S)-3-methyl-4-(((1r,4S)-4-(trifluoromethyl)cyclohexyl)methyl)piperazin-1-yl)methyl)pyrazolo[1,5-a]pyridin-3-yl)dihydropyrimidine-2,4(1H,3H)-dione]",83%,17%,4 nM,,
C[C@@H]1CN(CC2CCOCC2)CCN1Cc1ccn2ncc(N3CCC(=O)NC3=O)c2c1 [Example 219],75%,25%,212 nM,,

# The next lines start with results.
Dmax at 25 µM [1],"remaining activity at 25 µM (HEK-293T, read-out: WIZ Amax)",DC50,Compound,Dmax [1],"remaining activity (HEK-293T, read-out: WIZ Amax)"
94%,6%,32 nM,"CO[C@H]1CC[C@@H](CN2CCC(Cc3ccn4ncc(N5CCC(=O)NC5=O)c4c3)CC2)CC1 [Example 65, 1-(5-((1-(((1s,4s)-4-methoxycyclohexyl)methyl)piperidin-4-yl)methyl)pyrazolo[1,5-a]pyridin-3-yl)dihydropyrimidine-2,4(1H,3H)-dione]",,
91%,9%,20 nM,"O=C1CCN(c2cnn3ccc(CC4CCN(CC5CCCCC5)CC4)cc23)C(=O)N1 [Example 1, 1-(5-((1-(cyclohexylmethyl)piperidin-4-yl)methyl)pyrazolo[1,5-a]pyridin-3-yl)dihydropyrimidine-2,4(1H,3H)-dione]",,
42%,58%,> 25000 nM,O=C1CCN(c2cnn3ccc(CC4CCN(C(=O)OC5CCCCC5)CC4)cc23)C(=O)N1 [Example 96],,
35%,65%,800 nM,O=C1CCN(c2cnn3ccc(CC4CCN(Cc5cccnc5)C4)cc23)C(=O)N1 (stereo not drawn) [Example 129],,
58%,42%,98 nM,"O=C1CCN(c2cnn3ccc(CC4CCN(Cc5ccccc5Cl)CC4)cc23)C(=O)N1 [Example 59, 1-(5-((1-(2-chlorobenzyl)piperidin-4-yl)methyl)pyrazolo[1,5-a]pyridin-3-yl)dihydropyrimidine-2,4(1H,3H)-dione]",,
85%,15%,109 nM,"C[C@H]1CN(Cc2ccn3ncc(-n4ccc(=O)[nH]c4=O)c3c2)CCN1CC1CCC(F)(F)CC1 [Example 363, (S)-1-(5-((4-((4,4-difluorocyclohexyl)methyl)-3-methylpiperazin-1-yl)methyl)pyrazolo[1,5-a]pyridin-3-yl)pyrimidine-2,4(1H,3H)-dione]",,
89%,11%,76 nM,O=C1CCN(c2cnn3ccc(CC4CCN(S(=O)(=O)C5CCOCC5)CC4)cc23)C(=O)N1 [Example 83],,
70%,30%,26 nM,"Cc1c(F)cccc1CN1CCC(Cc2ccn3ncc(N4CCC(=O)NC4=O)c3c2)CC1 [Example 42, 1-(5-((1-(3-fluoro-2-methylbenzyl)piperidin-4-yl)methyl)pyrazolo[1,5-a]pyridin-3-yl)dihydropyrimidine-2,4(1H,3H)-dione]",,
87%,13%,9 nM,"C[C@H]1CN(Cc2ccn3ncc(N4CCC(=O)NC4=O)c3c2)CCN1CC1CCCCCC1 [Example 198, (S)-1-(5-((4-(cycloheptylmethyl)-3-methylpiperazin-1-yl)methyl)pyrazolo[1,5-a]pyridin-3-yl)dihydropyrimidine-2,4(1H,3H)-dione]",,
77%,23%,44 nM,"C[C@H]1CC(F)(Cc2ccn3ncc(N4CCC(=O)NC4=O)c3c2)CCN1CC1CCC(F)(F)CC1 (single isomer, unassigned) [Example 308]",,
0%,100%,> 25000 nM,"CC(C)S(=O)(=O)N1C[C@H]2C[C@@H]1CN2Cc1ccn2ncc(N3CCC(=O)NC3=O)c2c1 [Example 239, 1-(5-(((1R,4R)-5-(isopropylsulfonyl)-2,5-diazabicyclo[2.2.1]heptan-2-yl)methyl)pyrazolo[1,5-a]pyridin-3-yl)dihydropyrimidine-2,4(1H,3H)-dione]",,
35%,65%,290 nM,"O=C1CCN(c2cnn3ccc(CC4(F)CCN(Cc5ccccc5)CC4)cc23)C(=O)N1 [Example 126, 1-(5-((1-benzyl-4-fluoropiperidin-4-yl)methyl)pyrazolo[1,5-a]pyridin-3-yl)dihydropyrimidine-2,4(1H,3H)-dione]",,
89%,11%,24 nM,"C[C@H]1C[C@H](Cc2ccn3ncc(-n4ccc(=O)[nH]c4=O)c3c2)CCN1CC1CCC(F)(F)CC1 [Example 268, 1-(5-(((2S,4R)-1-((4,4-difluorocyclohexyl)methyl)-2-methylpiperidin-4-yl)methyl)pyrazolo[1,5-a]pyridin-3-yl)pyrimidine-2,4(1H,3H)-dione]",,
